Reference: ChEMBL document CHEMBL1151124, “Photodiode Array Detection and Structures of Griseolic Acid Analogues from Culture Broth” (J Nat Prod, 1988)
Active and inactive are the calls of the source. The rule behind the calls is not given here.

Assay: Inhibition of cAMP-specific 3',5'-cyclic phosphodiesterase

Activity	Structure (SMILES)
Active	Nc1ncnc2c1ncn2[C@@H]1OC2=C[C@](CC(=O)O)(C(=O)O)O[C@H]2[C@H]1O
inactive	Nc1ncnc2c1ncn2[C@@H]1O[C@H](C[C@@H](CC(=O)O)C(=O)O)[C@@H](O)[C@H]1O
Active	Nc1ncnc2c1ncn2[C@@H]1O[C@@H]2C[C@](CC(=O)O)(C(=O)O)O[C@H]2[C@H]1O
Active	Nc1ncnc2c1ncn2[C@@H]1OC2=C[C@@](C(=O)O)(C(O)C(=O)O)O[C@H]2[C@H]1O (some centres undefined)
